Data as given in patent US7452887B2, “Quinoline- and isoquinoline-based compounds exhibiting ATP-utilizing enzyme inhibitory activity, and compositions, and uses thereof” (Amphora Discovery Corporation, priority 2004, dated 2008).

Assays:
Experiment in all cases: HTS ATP-utilizing enzyme assay, off-chip mobility-shift (Caliper HTS 250)
Format in all cases: biochemical
Conditions in all cases: test compound 10 μM, kinase listed = active (greater than six-sigma from the mean activity of inactive compounds)
[1] = molecular target: MAPKAPK2 (Homo sapiens, UniProt P49137)
How it was run: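 Phosphorylation of a peptide substrate was quantified by Caliper mobility-shift separation of substrate and product after 2.5 h at 20-22 °C, with compounds tested at 10 μM. Inhibition was normalized to EDTA-quenched (100%) and DMSO (0%) controls; six-sigma thresholds flagged actives.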

[2] = molecular target: T1, NEK2 (Homo sapiens, UniProt P51955)
T1 sequence (P51955 1-445): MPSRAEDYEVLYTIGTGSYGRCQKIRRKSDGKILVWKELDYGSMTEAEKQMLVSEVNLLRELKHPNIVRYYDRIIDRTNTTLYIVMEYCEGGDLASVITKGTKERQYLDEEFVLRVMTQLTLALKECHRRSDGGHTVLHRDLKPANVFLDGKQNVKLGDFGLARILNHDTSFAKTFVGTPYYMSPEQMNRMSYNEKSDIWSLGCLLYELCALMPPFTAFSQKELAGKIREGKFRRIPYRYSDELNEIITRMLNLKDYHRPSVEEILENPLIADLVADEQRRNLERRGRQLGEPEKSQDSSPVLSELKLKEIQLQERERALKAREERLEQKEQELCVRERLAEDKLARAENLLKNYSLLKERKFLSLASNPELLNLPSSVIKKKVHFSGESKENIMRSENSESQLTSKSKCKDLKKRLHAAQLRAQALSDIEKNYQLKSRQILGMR
From the text: (§1) The following procedures describe the reagent and plate preparation for a HTS of an ATP-utilizing enzyme, such as a protein kinase, run in an off-chip mobility-shift assay format. The following provides an HTS protocol for running a protein kinase HTS screen on a Caliper HTS 250 microfluidics system. The following parameters are dependent on the protein kinase used and can be determined by one skilled in the art as part of a typical assay development process. For example, the peptide substrate used can be identified from the current literature, by screening a peptide library of potential protein kinase substrates, or by other applicable means accepted in the field.
(§2) The following table provides typical screen assay parameters appropriate for a Caliper HTS 250 microfluidics system.
(§3) The reagents and buffers listed in the following table are generally applicable for developing and running an HTS screen on a human protein kinase using the Caliper HTS 250 system.
(§4) The following reagents were prepared using the previously described buffers.
(§5) A 2× Master Buffer solution was prepared by combining 200 mL of 1 M HEPES, pH 7.5, 2 mL of 10% Triton X-100, 20 mL of 10% BSA, and 778 mL of H2O.
(§6) A 2.5× Substrate Buffer solution was prepared by combining 177.408 mL of 2× Master Buffer, 0.887 mL of 1 mM peptide-X, and 176.521 mL of H2O.
(§7) A 1.55× Termination Buffer solution was prepared by combining 762.05 mL of 2× Master Buffer, 95.1 mL of 0.5 M EDTA, and 666.94 mL of H2O.
(§8) A TCB Buffer solution was prepared by combining 125 mL of 2× Master Buffer, 10 mL of 0.5 M EDTA, 6.25 mL of 4% coating reagent, 1.01 mL of 100% DMSO, and 107.74 mL H2O.
(§9) A Dye Trough solution was prepared by combining 0.5 μL of peptide-X, and 2,999.5 μL of IX Master Buffer.
(§10) A 1.06× Assay Buffer solution was prepared by combining 205.15 mL of 2× Master Buffer, and 181.92 mL of H2O.
(§11) Assays to determine the kinase inhibitory activity of compounds of the present disclosure were performed using a Caliper HTS 250 microfluidics device, Greiner U-bottom assay plates, a Multidrop for transfer of reagents, and Biomek FX (AMNCBM03) software. Initially, 2.4 μL of a 1 mM solution of a test compound in 100% DMSO was added to a well of the Greiner U-bottom plate. A single Greiner U-bottom plate having 24×16 wells could include multiple test compounds. Next, […] of 1.06× Assay Buffer was added to each well of the assay plate. Using the Biomek FX, 10 μL of 0.5 M EDTA was added by the span-8 to wells, indicated as 100% Control and 2.4 μL of 100% DMSO was added by the span-8 to wells, indicated as 0% Control. Using the Multidrop, 10 μL of 2.5× Enzyme Buffer, followed by 10 μL of 2.5× Substrate Buffer was added to each well of the assay plate. The total reaction volume in each well was 25 μL, and the concentration of the test compound was 10 μM. The assay plate was incubated for 2.5 hrs at 20° C. to 22° C. After the incubation period, using the Multidrop, 45 μL of 1.55× Termination Buffer was added to each well of the assay plate to stop the reaction. The inhibition of the ATP-utilizing enzyme, such as a particular protein kinase, was determined by measuring the ratio of the peptide substrate to phosphorylated product for each well of the assay plate using the Caliper HTS 250 system.
(§12) The use of six-sigma statistical limits represents a conservative method for declaring potential hits among targets. The six-sigma activity, as well as the mean population activity, can be different for each target enzyme. This method has an expected false positive rate, from an in-control measurement process, of one in one million.

[3] = molecular target: C-TAK1 (Homo sapiens, UniProt P27448)
From the text: as §1, §2, §3, §4, §5, §6, §7, §8, §9, §10, §11, §12

[4] = molecular target: T2, PRAK (Homo sapiens, UniProt Q8IW41)
T2 sequence (Q8IW41 1-473): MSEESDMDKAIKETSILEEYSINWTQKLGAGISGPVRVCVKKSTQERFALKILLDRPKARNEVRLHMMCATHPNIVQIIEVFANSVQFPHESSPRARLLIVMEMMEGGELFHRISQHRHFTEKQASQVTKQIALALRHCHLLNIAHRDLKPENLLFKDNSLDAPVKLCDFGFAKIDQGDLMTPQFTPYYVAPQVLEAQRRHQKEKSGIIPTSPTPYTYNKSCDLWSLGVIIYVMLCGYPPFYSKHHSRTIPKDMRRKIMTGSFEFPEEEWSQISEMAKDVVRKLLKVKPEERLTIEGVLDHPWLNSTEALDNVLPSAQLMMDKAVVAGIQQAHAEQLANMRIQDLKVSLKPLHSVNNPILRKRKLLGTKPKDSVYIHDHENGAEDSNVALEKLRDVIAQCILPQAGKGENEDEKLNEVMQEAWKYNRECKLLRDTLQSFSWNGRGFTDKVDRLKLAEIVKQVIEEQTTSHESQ
From the text: as §1, §2, §3, §4, §5, §6, §7, §8, §9, §10, §11, §12

[5] = molecular target: KIT (Homo sapiens, UniProt P10721)
From the text: as §1, §2, §3, §4, §5, §6, §7, §8, §9, §10, §11, §12

[6] = molecular target: T3, DYRK2 (Homo sapiens, UniProt Q92630)
T3 sequence (Q92630 1-601): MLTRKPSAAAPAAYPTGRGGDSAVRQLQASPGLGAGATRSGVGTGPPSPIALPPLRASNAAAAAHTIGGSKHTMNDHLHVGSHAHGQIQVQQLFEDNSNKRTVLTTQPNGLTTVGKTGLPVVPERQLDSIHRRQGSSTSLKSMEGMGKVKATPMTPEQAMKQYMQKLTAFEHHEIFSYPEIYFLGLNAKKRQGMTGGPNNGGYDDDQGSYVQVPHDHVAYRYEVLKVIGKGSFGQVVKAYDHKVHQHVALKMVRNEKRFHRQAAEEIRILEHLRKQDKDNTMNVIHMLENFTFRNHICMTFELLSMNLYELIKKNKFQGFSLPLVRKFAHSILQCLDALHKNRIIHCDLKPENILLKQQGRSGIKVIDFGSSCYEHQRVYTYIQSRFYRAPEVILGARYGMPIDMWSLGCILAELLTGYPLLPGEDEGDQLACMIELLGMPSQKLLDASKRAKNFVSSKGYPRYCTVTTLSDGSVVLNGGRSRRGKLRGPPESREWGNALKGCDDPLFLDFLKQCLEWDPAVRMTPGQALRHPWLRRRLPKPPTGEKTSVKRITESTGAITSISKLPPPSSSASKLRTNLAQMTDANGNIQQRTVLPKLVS
From the text: as §1, §2, §3, §4, §5, §6, §7, §8, §9, §10, §11, §12

[7] = molecular target: CHEK2 (Homo sapiens, UniProt O96017)
From the text: as §1, §2, §3, §4, §5, §6, §7, §8, §9, §10, §11, §12

Sequence of CHEK2 (O96017 whole entry): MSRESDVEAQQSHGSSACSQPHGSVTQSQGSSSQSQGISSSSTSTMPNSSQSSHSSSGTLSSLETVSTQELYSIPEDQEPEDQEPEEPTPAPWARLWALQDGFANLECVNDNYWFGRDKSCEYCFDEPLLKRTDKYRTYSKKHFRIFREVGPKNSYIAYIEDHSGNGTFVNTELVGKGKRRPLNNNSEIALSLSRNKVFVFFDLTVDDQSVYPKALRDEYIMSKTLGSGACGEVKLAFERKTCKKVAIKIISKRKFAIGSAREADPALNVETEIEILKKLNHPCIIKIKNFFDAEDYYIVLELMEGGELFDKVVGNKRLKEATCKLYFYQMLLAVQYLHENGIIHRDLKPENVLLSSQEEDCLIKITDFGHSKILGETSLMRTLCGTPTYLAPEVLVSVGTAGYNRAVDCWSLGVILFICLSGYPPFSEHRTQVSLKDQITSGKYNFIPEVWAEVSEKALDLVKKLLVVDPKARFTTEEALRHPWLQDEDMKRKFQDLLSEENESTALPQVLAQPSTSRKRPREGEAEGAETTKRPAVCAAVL
Sequence of MAPKAPK2 (P49137 whole entry): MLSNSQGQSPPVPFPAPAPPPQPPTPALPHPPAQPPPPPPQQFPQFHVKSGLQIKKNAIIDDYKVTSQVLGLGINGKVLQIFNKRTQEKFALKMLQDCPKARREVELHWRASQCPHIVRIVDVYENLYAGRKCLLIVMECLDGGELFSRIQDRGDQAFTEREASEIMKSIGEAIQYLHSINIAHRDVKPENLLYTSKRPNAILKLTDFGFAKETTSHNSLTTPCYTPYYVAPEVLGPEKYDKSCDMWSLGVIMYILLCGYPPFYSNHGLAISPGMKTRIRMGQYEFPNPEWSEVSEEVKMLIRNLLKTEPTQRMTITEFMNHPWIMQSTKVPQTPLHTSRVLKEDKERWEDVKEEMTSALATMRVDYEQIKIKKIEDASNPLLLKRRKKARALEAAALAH
Sequence of KIT (P10721 26-976): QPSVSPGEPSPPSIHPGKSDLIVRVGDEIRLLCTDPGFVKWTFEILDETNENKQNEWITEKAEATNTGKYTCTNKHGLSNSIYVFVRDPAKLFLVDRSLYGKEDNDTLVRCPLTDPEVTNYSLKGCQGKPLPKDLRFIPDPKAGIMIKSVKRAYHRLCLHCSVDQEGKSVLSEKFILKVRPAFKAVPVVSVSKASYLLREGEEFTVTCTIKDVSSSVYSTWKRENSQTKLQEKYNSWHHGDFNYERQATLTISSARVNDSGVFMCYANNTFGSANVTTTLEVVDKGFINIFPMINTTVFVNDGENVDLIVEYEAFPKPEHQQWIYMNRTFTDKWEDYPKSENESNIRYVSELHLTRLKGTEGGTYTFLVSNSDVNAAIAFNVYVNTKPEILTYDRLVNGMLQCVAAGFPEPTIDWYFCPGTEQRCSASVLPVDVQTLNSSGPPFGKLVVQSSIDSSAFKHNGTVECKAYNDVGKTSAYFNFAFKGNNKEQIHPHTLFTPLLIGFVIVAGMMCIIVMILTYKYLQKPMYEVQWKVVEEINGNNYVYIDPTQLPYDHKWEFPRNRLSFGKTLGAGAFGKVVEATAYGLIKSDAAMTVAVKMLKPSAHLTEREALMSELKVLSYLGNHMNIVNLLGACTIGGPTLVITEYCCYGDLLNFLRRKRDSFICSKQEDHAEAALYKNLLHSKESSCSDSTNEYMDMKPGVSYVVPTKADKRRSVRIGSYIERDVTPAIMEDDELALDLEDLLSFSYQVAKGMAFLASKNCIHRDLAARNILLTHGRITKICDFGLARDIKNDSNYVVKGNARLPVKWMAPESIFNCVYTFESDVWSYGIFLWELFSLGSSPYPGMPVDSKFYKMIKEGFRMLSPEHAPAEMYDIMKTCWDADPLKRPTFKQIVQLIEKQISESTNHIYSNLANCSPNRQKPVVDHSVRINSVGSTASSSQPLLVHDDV
Sequence of C-TAK1 (P27448 whole entry): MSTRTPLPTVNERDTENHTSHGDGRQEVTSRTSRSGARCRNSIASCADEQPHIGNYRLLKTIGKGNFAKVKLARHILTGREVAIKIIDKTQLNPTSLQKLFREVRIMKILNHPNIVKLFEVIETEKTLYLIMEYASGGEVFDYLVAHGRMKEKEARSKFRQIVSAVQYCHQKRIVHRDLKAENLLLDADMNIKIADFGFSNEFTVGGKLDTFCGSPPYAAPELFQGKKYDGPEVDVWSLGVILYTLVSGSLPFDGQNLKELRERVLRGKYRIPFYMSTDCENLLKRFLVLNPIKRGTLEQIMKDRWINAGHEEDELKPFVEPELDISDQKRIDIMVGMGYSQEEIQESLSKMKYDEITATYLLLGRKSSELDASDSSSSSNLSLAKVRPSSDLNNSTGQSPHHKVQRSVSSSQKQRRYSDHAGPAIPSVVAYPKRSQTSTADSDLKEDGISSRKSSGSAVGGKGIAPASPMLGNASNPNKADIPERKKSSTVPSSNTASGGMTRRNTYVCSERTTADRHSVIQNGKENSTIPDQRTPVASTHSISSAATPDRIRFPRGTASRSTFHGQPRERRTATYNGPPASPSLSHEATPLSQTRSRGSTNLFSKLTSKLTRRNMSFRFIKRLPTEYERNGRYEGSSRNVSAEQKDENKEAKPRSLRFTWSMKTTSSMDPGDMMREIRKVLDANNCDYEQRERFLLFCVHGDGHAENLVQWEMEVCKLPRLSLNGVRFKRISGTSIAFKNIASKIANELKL

| Activity [1] | Activity [2] | Activity [3] | Activity [4] | Activity [5] | Activity [6] | Activity [7] | SMILES |
| --- | --- | --- | --- | --- | --- | --- | --- |
| MAPKAPK2 | NEK2 | C-TAK1 | PRAK |  |  |  | CCSc1ccc(-c2ccc3nccc(Nc4ccc(N5CCN(C)CC5)cc4)c3c2)cc1 [6-(4-(ethylthio)phenyl)-N-(4-(4-methylpiperazin-1-yl)phenyl)quinolin-4-amine] |
| MAPKAPK2 |  | C-TAK1 | PRAK |  |  |  | CN1CCN(c2ccc(Nc3ccnc4ccc(-c5cccc(-c6ccccc6)c5)cc34)cc2)CC1 [6-(biphenyl-3-yl)-N-(4-(4-methylpiperazin-1-yl)phenyl)quinolin-4-amine] |
|  |  |  |  | KIT |  |  | CN(C)C1CCN(c2ccc(Nc3ccnc4ccc(-c5ccc(C#N)cc5)cc34)cc2)CC1 [4-(4-(4-(4-(dimethylamino)piperidin-1-yl)phenylamino)quinolin-6-yl)benzonitrile] |
| MAPKAPK2 | NEK2 |  | PARK |  |  | CHEK2 | CCOc1cccc(-c2ccc3nccc(Nc4ccc(N5CCN(C)CC5)cc4)c3c2)c1 [6-(3-ethoxyphenyl)-N-(4-(4-methylpiperazin-1-yl)phenyl)quinolin-4-amine] |
| MAPKAPK2 |  | C-TAK1 | PRAK |  |  |  | CN1CCN(c2ccc(Nc3ccnc4ccc(-c5ccc(Oc6ccccc6)cc5)cc34)cc2)CC1 [N-(4-(4-methylpiperazin-1-yl)phenyl)-6-(4-phenoxyphenyl)quinolin-4-amine] |
| MAPKAPK2 | NEK2 |  | PRAK |  |  | CHEK2 | Cc1csc(-c2ccc3nccc(Nc4ccc(N5CCN(C)CC5)cc4)c3c2)c1 [N-(4-(4-methylpiperazin-1-yl)phenyl)-6-(4-methylthiophen-2-yl)quinolin-4-amine] |
| MAPKAPK2 | NEK2 |  | PRAK |  |  | CHEK2 | C=Cc1ccc(-c2ccc3nccc(Nc4ccc(N5CCN(C)CC5)cc4)c3c2)cc1 [N-(4-(4-methylpiperazin-1-yl)phenyl)-6-(4-vinylphenyl)quinolin-4-amine] |
| MAPKAPK2 | NEK2 |  | PRAK |  | DYRK2 |  | COc1ccc(-c2ccc3nccc(Nc4ccc(N5CCN(C)CC5)cc4)c3c2)cc1OC [6-(3,4-dimethoxyphenyl)-N-(4-(4-methylpiperazin-1-yl)phenyl)quinolin-4-amine] |
| MAPKAPK2 |  |  |  |  | DYRK2 |  | COc1ccc(-c2ccc3nccc(Nc4ccc(N5CCN(CCCO)CC5)cc4)c3c2)cc1 [3-(4-(4-(6-(4-methoxyphenyl)quinolin-4-ylamino)phenyl)piperazin-1-yl)propan-1-ol] |

Continued, compound first:

| SMILES | Activity [1] | Activity [2] | Activity [3] | Activity [4] | Activity [5] | Activity [6] | Activity [7] |
| --- | --- | --- | --- | --- | --- | --- | --- |
| COc1ccc(-c2ccc3nccc(Nc4ccc(N5CCN(CCN(C)C)CC5)cc4)c3c2)cc1 [N-(4-(4-(2-(dimethylamino)ethyl)piperazin-1-yl)phenyl)-6-(4-methoxyphenyl)quinolin-4-amine] | MAPKAPK2 |  | C-TAK1 |  |  | DYRK2 |  |
| Cc1cc(-c2ccc3nccc(Nc4ccc(N5CCN(C)CC5)cc4)c3c2)ccc1F [6-(4-fluoro-3-methylphenyl)-N-(4-(4-methylpiperazin-1-yl)phenyl)quinolin-4-amine] | MAPKAPK2 | NEK2 | C-TAK1 | PRAK |  |  |  |
| COc1cccc(-c2ccc3nccc(Nc4ccc(N5CCN(C)CC5)cc4)c3c2)c1 [6-(3-methoxyphenyl)-N-(4-(4-methylpiperazin-1-yl)phenyl)quinolin-4-amine] |  | NEK2 |  | PRAK |  | DYRK2 |  |
| CC(C)N1CCN(c2ccc(Nc3ccnc4ccc(-c5ccccc5)cc34)cc2)CC1 [N-(4-(4-isopropylpiperazin-1-yl)phenyl)-6-phenylquinolin-4-amine] | MAPKAPK2 |  |  |  | KIT |  |  |
| N#Cc1ccc(-c2ccc3nccc(Nc4ccc(C5CCNCC5)cc4)c3c2)cc1 [4-(4-(4-(piperidin-4-yl)phenylamino)quinolin-6-yl)benzonitrile] |  |  |  |  | KIT |  |  |
| CN1CCN(c2ccc(Nc3ccnc4ccc(-c5ccco5)cc34)cc2)CC1 [6-(furan-2-yl)-N-(4-(4-methylpiperazin-1-yl)phenyl)quinolin-4-amine] | MAPKAPK2 |  |  | PRAK |  |  | CHEK2 |
| COc1ccc(-c2ccc3nccc(Nc4ccc(N5CCN(C)CC5)cc4)c3c2)cc1 [6-(4-methoxyphenyl)-N-(4-(4-methylpiperazin-1-yl)phenyl)quinolin-4-amine] | MAPKAPK2 | NEK2 |  | PRAK |  | DYRK2 |  |
